According to patent publication US20160331721A1, “COMPOSITION FOR ALLEVIATING AND PREVENTING ALZHEIMER'S DISEASE” (Sunway Biotech Co., LTD, priority 2015, published 2016):

Legend:
[1] = system: Aβ-induced AD (Alzheimer's disease) rats; test: Spatial probe test in water maze (Day 26); type: in vivo, SD rats
Source text: (§1) Therefore, above descriptions have completely introduce the fabricating way for this Alzheimer's disease alleviating and preventing composition. Next, a variety of experimental data will be presented in following paragraphs for proving the practicability of the Alzheimer's disease alleviating and preventing composition. Please refer to FIG. 4, which shoes an experiment grouping table.
(§2) Please continuously refer to FIG. 5, where a daily schedule diagram for the animal experiments are provided.
Next, spatial probe test is completed on Day 26. During the spatial probe test, the rest platform is removed out of the water tank. To carry out the spatial probe test, the test rat is put on the starting point 1 located in quadrant I; and then, letting the rat swim in the water tank for 90 seconds so as to record the rat's swimming route as well as the time for staying in quadrant IV. Please refer to FIG. 8, which provides swimming route records of the test rats as working the spatial navigation test.

[2] = system: Aβ-induced AD (Alzheimer's disease) rats; test: Working memory test in water maze (Day 27); type: in vivo, SD rats; conditions: FIG. 10, compared to Aβ group
Source text: as §1, §2

Compound: COc1cc2c(cc1OC)C(=O)C(CC1CCN(Cc3ccccc3)CC1)C2 (stereo not drawn) [Donepezil]
- swimming route in spatial probe test ([1]; FIG. 8, compared to Aβ group (non-directional swimming), rest platform removed): directly swim into the quadrant IV
- time spent for searching target quadrant ([1]; FIG. 9, compared to Aβ group, target quadrant IV): the Aβ group spend more time to find the target quadrant
- escape latency, working memory test [2]: the Aβ group spend more time to find the target quadrant
